Reference: patent publication US20170240556A1, “BIFLUORODIOXALANE-AMINO-BENZIMIDAZOLE KINASE INHIBITORS FOR THE TREATMENT OF CANCER, AUTOIMMUNEINFLAMMATION AND CNS DISORDERS” (4SC DISCOVERY GMBH, priority 2012, published 2017)

Legend:
Test in all cases: Proliferation Assay
Format in all cases: cell-based
IGROV1 (ovary) = settings: Homo sapiens, IGROV-1, 72 h, read-out: IC50 inhibition of cell growth
Experimental: (§1) For the determination of the inhibitory capacity of compounds of the present invention (in the following: “test compound(s)”) on cell growth, cancer cells were seeded into microtitre plates, treated with different concentrations of test compound or left untreated, and after 72 h the protein content was determined as an equivalent for the cell number.
(§2) Test compounds were dissolved in 100% DMSO and predilutions in cell culture medium were prepared with a final concentration of 0.1% DMSO in medium. The cell culture medium for dilution of the test compounds, consecutive culturing of cell lines and usage during the assay was a cell line specific medium as recommended by the cell line supplier and identical for all three applications mentioned above. After a 24-hour pre-growth period of the seeded cancer cells, the test compound containing media or medium containing 0.1% DMSO as control was added to the cells. The cells were allowed to grow at 37° C. for 72 hours. In addition, all experiments contained a few plates with cells that were processed for measurement immediately after the 24 hours recovery period. These plates contained information about the cell number that existed before treatment, at time zero, and served to calculate the cytotoxicity and/or growth inhibitory effects.
(§3) After treatment, cells were precipitated by addition of 10% TCA (trichloracetic acid). Prior to fixation, the media was aspirated. After an hour of incubation at 4° C. the plates were washed twice with 400 μl of deionized water. Cells were then stained with 100 μl of a 0.08% wt/v SRB (sulforhodamine). The plates were allowed to sit for at least 30 min and washed six times with 1% acetic acid to remove unbound staining agent. The plates were left to dry at room temperature and bound SRB was solubilized with 100 μl of 10 mM Tris base. Measurement of optical density was performed at 560 nm on a Victor 2 plate reader (Perkin Elmer, Germany).
(§4) One common way to express the effect of an anticancer agent is to measure cell viability and survival in the presence of the test agent as % Treated/Control×100. The relationship between the viability and dose is called a dose response curve. Those dose response curves were determined by using algorithms developed by Oncolead GmbH & Co. KG, Munich, Germany, that can be compared to commercial applications, e.g. XLfit™ (ID Business Solutions Ltd., Guildford, UK) algorithm “205”.

T24 (bladder) = settings: 72 h, read-out: IC50 inhibition of cell growth
Experimental: as §1, §2, §3, §4

HS578T (breast) = settings: Homo sapiens, Hs-578T, 72 h, read-out: IC50 inhibition of cell growth
Experimental: as §1, §2, §3, §4

CASKI (cervix) = settings: Homo sapiens, Ca-Ski, 72 h, read-out: IC50 inhibition of cell growth
Experimental: as §1, §2, §3, §4

MT3 (breast) = settings: 72 h, read-out: IC50 inhibition of cell growth
Experimental: as §1, §2, §3, §4

HS729 (muscle) = settings: 72 h, read-out: IC50 inhibition of cell growth
Experimental: as §1, §2, §3, §4

SKMEL28 (skin) = settings: Homo sapiens, SK-MEL-28, 72 h, read-out: IC50 inhibition of cell growth
Experimental: as §1, §2, §3, §4

MDAMB436 (breast) = settings: Homo sapiens, MDA-MB-436, 72 h, read-out: IC50 inhibition of cell growth
Experimental: as §1, §2, §3, §4

NCIH292 (lung) = settings: Homo sapiens, NCI-H292, 72 h, read-out: IC50 inhibition of cell growth
Experimental: as §1, §2, §3, §4

SKLMS1 (uterus) = settings: Homo sapiens, SK-LMS-1, 72 h, read-out: IC50 inhibition of cell growth
Experimental: as §1, §2, §3, §4

SF268 (brain) = settings: Homo sapiens, SF-268, 72 h, read-out: IC50 inhibition of cell growth
Experimental: as §1, §2, §3, §4

SAOS2 (bone) = settings: Homo sapiens, SAOS-2, 72 h, read-out: IC50 inhibition of cell growth
Experimental: as §1, §2, §3, §4

CLS439 (bladder) = settings: 72 h, read-out: IC50 inhibition of cell growth
Experimental: as §1, §2, §3, §4

MIAPACA2 (pancreas) = settings: Homo sapiens, MIA PaCa-2, 72 h, read-out: IC50 inhibition of cell growth
Experimental: as §1, §2, §3, §4

SKNSH (brain) = settings: Homo sapiens, SK-N-SH, 72 h, read-out: IC50 inhibition of cell growth
Experimental: as §1, §2, §3, §4

DU145 (prostate) = settings: Homo sapiens, DU-145, 72 h, read-out: IC50 inhibition of cell growth
Experimental: as §1, §2, §3, §4

A431 (skin) = settings: Homo sapiens, A-431, 72 h, read-out: IC50 inhibition of cell growth
Experimental: as §1, §2, §3, §4

DLD1 (colon) = settings: Homo sapiens, DLD-1, 72 h, read-out: IC50 inhibition of cell growth
Experimental: as §1, §2, §3, §4

MDAMB468 (breast) = settings: Homo sapiens, MDA-MB-468, 72 h, read-out: IC50 inhibition of cell growth
Experimental: as §1, §2, §3, §4

HT29 (colon) = settings: Homo sapiens, HT-29, 72 h, read-out: IC50 inhibition of cell growth
Experimental: as §1, §2, §3, §4

22RV1 (prostate) = settings: Homo sapiens, 72 h, read-out: IC50 inhibition of cell growth
Experimental: as §1, §2, §3, §4

OVCAR3 (ovary) = settings: Homo sapiens, OVCAR-3, 72 h, read-out: IC50 inhibition of cell growth
Experimental: as §1, §2, §3, §4

IMR90 (lung) = settings: Homo sapiens, IMR-90, 72 h, read-out: IC50 inhibition of cell growth
Experimental: as §1, §2, §3, §4

JEG3 (placenta) = settings: Homo sapiens, JEG-3, 72 h, read-out: IC50 inhibition of cell growth
Experimental: as §1, §2, §3, §4

ASPC1 (pancreas) = settings: Homo sapiens, 72 h, read-out: IC50 inhibition of cell growth
Experimental: as §1, §2, §3, §4

Measured: IC50

COc1cccc(C(=O)Nc2nc3cc4c(cc3[nH]2)OC(F)(F)O4)c1 [Compound 56, N-(2,2-difluoro-5H-[1,3]dioxolo[4′,5′:4,5]benzo[1,2-d]imidazol-6-yl)-3-methoxybenzamide]
≤ 1000 nM: all assays above
